This test addresses T1, sGC α1/β1 heterodimer (Homo sapiens, UniProt Q02108+Q02153).
T1 construct: expressed in transfected cells; host or cells: CHO-K1 (clone #7, CHO-K1/sGC)
T1 sequence (Q02108 1-690): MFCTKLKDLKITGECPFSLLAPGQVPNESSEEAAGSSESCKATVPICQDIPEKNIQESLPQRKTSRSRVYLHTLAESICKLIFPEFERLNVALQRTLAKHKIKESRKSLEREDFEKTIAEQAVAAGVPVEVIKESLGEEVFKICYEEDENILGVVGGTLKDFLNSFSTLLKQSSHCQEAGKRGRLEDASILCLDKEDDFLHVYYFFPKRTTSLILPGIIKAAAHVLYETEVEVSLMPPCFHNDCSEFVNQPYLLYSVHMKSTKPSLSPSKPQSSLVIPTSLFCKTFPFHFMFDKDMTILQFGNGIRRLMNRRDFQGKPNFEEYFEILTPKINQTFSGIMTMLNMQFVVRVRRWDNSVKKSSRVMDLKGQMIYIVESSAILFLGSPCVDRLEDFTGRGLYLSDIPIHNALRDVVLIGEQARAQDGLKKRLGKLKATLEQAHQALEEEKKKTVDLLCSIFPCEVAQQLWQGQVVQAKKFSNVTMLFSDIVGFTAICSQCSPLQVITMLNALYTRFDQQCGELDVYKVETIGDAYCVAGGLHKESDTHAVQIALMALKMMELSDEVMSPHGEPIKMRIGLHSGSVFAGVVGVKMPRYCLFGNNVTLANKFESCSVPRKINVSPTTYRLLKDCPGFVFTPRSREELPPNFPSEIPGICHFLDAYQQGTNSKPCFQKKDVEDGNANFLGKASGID
T1 sequence (Q02153 1-619): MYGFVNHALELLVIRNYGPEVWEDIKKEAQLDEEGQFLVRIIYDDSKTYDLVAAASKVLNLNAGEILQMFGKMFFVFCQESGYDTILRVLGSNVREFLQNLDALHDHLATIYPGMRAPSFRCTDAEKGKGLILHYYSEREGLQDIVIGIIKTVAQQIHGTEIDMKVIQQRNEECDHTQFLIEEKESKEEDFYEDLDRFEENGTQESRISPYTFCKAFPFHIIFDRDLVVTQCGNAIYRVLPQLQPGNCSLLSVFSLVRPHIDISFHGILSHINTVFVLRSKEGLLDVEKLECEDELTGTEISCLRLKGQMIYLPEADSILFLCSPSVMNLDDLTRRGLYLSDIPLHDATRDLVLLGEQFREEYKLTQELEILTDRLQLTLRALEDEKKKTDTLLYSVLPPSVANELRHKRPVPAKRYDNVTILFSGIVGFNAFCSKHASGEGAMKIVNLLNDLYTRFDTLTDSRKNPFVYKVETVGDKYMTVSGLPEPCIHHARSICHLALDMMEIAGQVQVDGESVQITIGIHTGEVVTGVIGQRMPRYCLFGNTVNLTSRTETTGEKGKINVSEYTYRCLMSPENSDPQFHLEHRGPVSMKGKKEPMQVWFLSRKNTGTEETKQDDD
Nature of the test: Cell-Based sGC Functional Assay (CASA Assay), cGMP by HTRF in CHO-K1/sGC cells. The following applies: for Emax: CHO-K1, percent activation relative to maximum cGMP production of Compound A (= 100%), read-out: % Act.; for EC50: cGMP production, 1 hr at 37° C., 4P fit, presence or absence of 1 μM DETA-NO not given, read-out: IP (nM) (inflection point). The text has this:
Biological Assay 1: Cell-Based sGC Functional Assay (CASA Assay)
sGC is a heme-containing enzyme that converts GTP to secondary messenger cGMP. Increases in cGMP levels affect several physiological processes including vasorelaxation through multiple downstream pathways. […] Heme-dependent activators (HDAs) preferentially activate sGC containing a ferrous heme group. To determine the effect of sGC activators on enzyme activity, the CASA assay was developed to monitor the generation of cGMP in a cell line that stably expresses the heterodimeric sGC protein.
A CHO-K1 cell line stably expressing the sGC α1/β1 heterodimer was generated using a standard transfection protocol. CHO-K1 cells were transfected with plasmids pIREShyghsGCα1 and pIRESneo-hsGCβ1 simultaneously using FUGENE reagent. Clones that stably express both subunits were selected with hygromycin and neomycin for ˜2 weeks. Clone #7 was chosen for the assay and was designated CHO-K1/sGC. CHO-K1/sGC cells were maintained in F-K12 medium containing 10% heat-inactivated Fetal Bovine Serum (FBS), 100 μg/mL penicillin/streptomycin, 0.5 mg/mL hygromycin and 0.25 mg/mL G418. The cells were then cryopreserved in LN2. On the day of the assay, cells were thawed and resuspended in EBSS Assay Buffer (Sigma, E3024) supplemented with 5 mM MgCl2, 10 mM HEPES (4-(2-hydroxyethyl)piperazine-1-ethanesulfonic acid) and 0.05% BSA (bovine serum albumin) (EAB) and cell density was then adjusted to 4×10^5/mL with EAB. IBMX (3-isobutyl-1-methylxanthin, 0.5 mM) was added to inhibit degradation of cGMP. Compounds were diluted from DMSO stock solutions and added to the assay at a final DMSO concentration of 2.5%. Cells were incubated with compounds in the presence and absence of 1 μM of Diethylenetriamine/nitric oxide adduct (DETA-NO; Sigma, 17018) for 1 hr at 37° C. At the end of the incubation period, the reaction was terminated and the cells were lysed with the detection reagents from Cisbio Kits. The level of intracellular cGMP was determined using an HTRF-based assay kit (CisBio, 62GM2PEC), which detects the displacement of a fluorescence labeled cGMP from its specific antibody. The cGMP produced by test compounds was directly compared to the maximum cGMP production (this value was set to equal 100% activation.) of the published sGC-HDA Compound A:
[drawing 175] (Example 1 in WO 2010/065275, published Jun. 10, 2010). The test compounds' activities were then expressed as a percentage of Compound A, the standard in every experiment. This percent activation was calculated either in the presence or absence of DETA-NO which was then plotted. IP and maximum fold induction was derived using ADA analysis software for 4P fit.
The compounds in the Examples of the instant invention had inflection points (IP) less than or equal to 10 μM and most less than or equal to about 1 μM.

Structures are written as SMILES.

For the compound `O=C1Nc2nc(-c3cn4ccnc4c(CCCC(F)(F)F)n3)ncc2C1(c1ccc(Cl)c(F)c1)C1CC1` (stereo not drawn) [Example 48A, 5-(4-chloro-3-fluorophenyl)-5-cyclopropyl-2-(8-(4,4,4-trifluorobutyl)imidazo[1,2-a]pyrazin-6-yl)-5H-pyrrolo[2,3-d]pyrimidin-6(7H)-one], the Emax was found to be 130% and the EC50 is 24 nM.
As to `O=C1Nc2nc(-c3cn4ccnc4c(CCCC(F)(F)F)n3)ncc2C1(c1ccc(Cl)cc1F)C1CC1` (stereo not drawn) [Example 46A, 5-(4-chloro-2-fluorophenyl)-5-cyclopropyl-2-(8-(4,4,4-trifluorobutyl)imidazo[1,2-a]pyrazin-6-yl)-5H-pyrrolo[2,3-d]pyrimidin-6(7H)-one], the Emax was 135% and the EC50 was determined as 10 nM.
The matching figures for `CC1(c2ccc(F)cn2)C(=O)Nc2nc(-c3cn4ccnc4c(CCCC(F)(F)F)n3)nc(C3CC3)c21` (stereo not drawn) [Example 73B, 4-cyclopropyl-5-(5-fluoropyridin-2-yl)-5-methyl-2-(8-(4,4,4-trifluorobutyl)imidazo[1,2-a]pyrazin-6-yl)-5H-pyrrolo[2,3-d]pyrimidin-6(7H)-one]: 125% and 18 nM.
For `CCCCc1nc(-c2ncc3c(n2)NC(=O)C3(c2ccc(Cl)c(F)c2)C2CC2)cn2ccnc12` (stereo not drawn) [Example 47A, 2-(8-butylimidazo[1,2-a]pyrazin-6-yl)-5-(4-chloro-3-fluorophenyl)-5-cyclopropyl-5H-pyrrolo[2,3-d]pyrimidin-6(7H)-one], the Emax turned out to be 123% and the EC50 came to 11 nM.
Take `O=C1Nc2nc(-c3cn4ccnc4c(CCC(F)(F)C(F)(F)F)n3)nc(O)c2C1(c1ccc(Cl)cn1)C1CC1` (stereo not drawn) [Example 8A, 5-(5-chloropyridin-2-yl)-5-cyclopropyl-4-hydroxy-2-(8-(3,3,4,4,4-pentafluorobutyl)imidazo[1,2-a]pyrazin-6-yl)-5H-pyrrolo[2,3-d]pyrimidin-6(7H)-one]: the Emax is 142% and the EC50 was 1180 nM.
The matching figures for `CCCCc1nc(-c2ncc3c(n2)NC(=O)C3(c2ccc(OC(F)(F)F)cc2)C2CC2)cn2ccnc12` (stereo not drawn) [Example 51A, 2-(8-butylimidazo[1,2-a]pyrazin-6-yl)-5-cyclopropyl-5-(4-(trifluoromethoxy)phenyl)-5H-pyrrolo[2,3-d]pyrimidin-6(7H)-one]: 98% and 56 nM.
Consider `CCCc1nc(-c2nc(O)c3c(n2)NC(=O)C3(C)c2ccc(Cl)c(F)c2)cn2ccnc12` (stereo not drawn) [Example 15B, 5-(4-chloro-3-fluorophenyl)-4-hydroxy-5-methyl-2-(8-propylimidazo[1,2-a]pyrazin-6-yl)-5H-pyrrolo[2,3-d]pyrimidin-6(7H)-one], for which the Emax was found to be 84% and the EC50 was 702 nM.
`CCCCc1nc(-c2nc(O)c3c(n2)NC(=O)C3(c2ccc(Cl)cc2F)C2CC2)cn2ccnc12` (stereo not drawn) [Example 33A, 2-(8-butylimidazo[1,2-a]pyrazin-6-yl)-5-(4-chloro-2-fluorophenyl)-5-cyclopropyl-4-hydroxy-5H-pyrrolo[2,3-d]pyrimidin-6(7H)-one]: the Emax was 111% and the EC50 is 107 nM.
The like results for `CC1(c2ccc(Cl)cc2)C(=O)Nc2nc(-c3cn4ccnc4c(OCCC4CC4)n3)nc(O)c21` (stereo not drawn) [Example 94A, 5-(4-Chlorophenyl)-2-(8-(2-cyclopropylethoxy)imidazo[1,2-a]pyrazin-6-yl)-4-hydroxy-5-methyl-5H-pyrrolo[2,3-d]pyrimidin-6(7H)-one] were, in that order, 90% and 136 nM.
`O=C1Nc2nc(-c3cn4ccnc4c(CCC(F)(F)C(F)(F)F)n3)ncc2C1(c1ccc(F)cn1)C1CC1` (stereo not drawn) [Example 53A, 5-cyclopropyl-5-(5-fluoropyridin-2-yl)-2-(8-(3,3,4,4,4-pentafluorobutyl)imidazo[1,2-a]pyrazin-6-yl)-5H-pyrrolo[2,3-d]pyrimidin-6(7H)-one]: the Emax amounted to 125% and the EC50 is 220 nM.
Take `CC1(c2ccc(Cl)cn2)C(=O)Nc2nc(-c3cn4c(N)cnc4c(CCC(F)(F)C(F)(F)F)n3)ncc21` (stereo not drawn) [Example 87A, 2-(3-Amino-8-(3,3,4,4,4-pentafluorobutyl)imidazo[1,2-a]pyrazin-6-yl)-5-(5-chloropyridin-2-yl)-5-methyl-5H-pyrrolo[2,3-d]pyrimidin-6(7H)-one]: the Emax came out at 130% and the EC50 worked out at 316 nM.
`CCCc1nc(-c2ncc3c(n2)NC(=O)C3(C)c2ccc(Cl)cn2)cn2ccnc12` (stereo not drawn) [Example 57A, 5-(5-chloropyridin-2-yl)-5-methyl-2-(8-propylimidazo[1,2-a]pyrazin-6-yl)-5H-pyrrolo[2,3-d]pyrimidin-6(7H)-one]: the Emax turned out to be 90% and the EC50 was 981 nM.
The matching figures for `CC1(c2ccc(F)cc2)C(=O)Nc2nc(-c3cn4ccnc4c(CCC(F)(F)C(F)(F)F)n3)nc(C3CC3)c21` (stereo not drawn) [Example 75A, 4-cyclopropyl-5-(4-fluorophenyl)-5-methyl-2-(8-(3,3,4,4,4-pentafluorobutyl)imidazo [1,2-a]pyrazin-6-yl)-5H-pyrrolo[2,3-d]pyrimidin-6(7H)-one]: 166% and 72 nM.
With `COc1nc(-c2cn3ccnc3c(CCC(F)(F)C(F)(F)F)n2)nc2c1C(C)(c1ccc(F)cc1)C(=O)N2` (stereo not drawn) [Example 89A, 5-(4-Fluorophenyl)-4-methoxy-5-methyl-2-(8-(3,3,4,4,4-pentafluorobutyl)imidazo[1,2-a]pyrazin-6-yl)-5H-pyrrolo[2,3-d]pyrimidin-6(7H)-one], the Emax amounted to 110% and the EC50 is 606 nM.
On to `O=C1Nc2nc(-c3cn4ccnc4c(Cc4ccccc4F)n3)ncc2C1(C(=O)NC1CC1)C1CC1` (single isomer, unassigned) [Example 70B, N,5-dicyclopropyl-2-(8-(2-fluorobenzyl)imidazo[1,2-a]pyrazin-6-yl)-6-oxo-6,7-dihydro-5H-pyrrolo[2,3-d]pyrimidine-5-carboxamide], for which the EC50 was 61 nM. Besides, the “% Act.” value (percent activation relative to maximum cGMP production of Compound A (= 100%)) came to 130%.

For the origin of these results see patent US10213429B2, “Imidazo-pyrazinyl derivatives useful as soluble guanylate cyclase activators” (Merck Sharp & Dohme Corp., priority 2015, dated 2019).
